# In patent publication US8916686B2, “TDF-related compounds and analogs thereof” (Thrasos Innovation, Inc., priority 2004, dated 2014):
# Columns and labels:
# HK-2 cells = experiment: Apoptosis detection using Annexin V immunostaining after cisplatin; format: cell-based, human; settings: 10 uM cisplatin; 500 uM compound prophylactically or therapeutically
# Procedure: Apoptosis and cell viability are quantified using AnnexinV-FITC and propidium iodide staining of HK-2 cells following cisplatin treatment Immortalized PTEC-derived HK-2 cells (ATCC number CRL-2190) are cultured in serum-free keratinocyte medium (GIBCO number 17005-042) supplemented with EGF and BPE for 48 hours (Ryan et al. 1994 Kidney Int 45:48-57). Medium is aspirated and cells are washed with PBS and incubated in the dark for 15 min at room temperature with 10 μl of media binding agent and 1.25 μl of FITC conjugated AnnexinV. Propidium iodide (10 μl) is added, and samples are analyzed immediately. Quantification of Annexin V-FITC and propidium iodide signals is performed by fluorescence microscopy (Axiovert 135; Carl Zeiss). Phase contrast images are observed using transmitted light. Apoptotic cells show cytoplasmic staining and viable cells remain unstained (FIG. 14A-FIG. 14D).
# [1] = test system: rat after ligation of the coronary artery; experiment: LAD occlusion model of myocardial injury (ischemia/reperfusion); format: in vivo
# Procedure: The efficacy of compound SEQ ID #45 in ameliorating the effects of myocardial ischemia was investigated in the rat after ligation of the coronary artery. […] unmanipulated rats, sorted into two large groups by initial body weight (>300 g pre-surgery) were evaluated. Fourteen rats underwent surgery on week, 12 rats underwent surgery on week 2 and rats were sorted into 3 treatment groups: Group 1, PBS; Group 2, positive control TDF-1; Group 3, test article SEQ ID #45 (see Table X).
# Three days prior to surgery, a serum sample was collected from the tail vein of each rat (pre-bleed). On the day of surgery, each rat was administered compound intravenously 2 hr prior to surgery. Surgery was performed sequentially after intubation and ventilation with 0.5% isofluorane anesthetic. Lead II ECG was monitored throughout the surgery. A thoracotomy was performed and the main left coronary artery was occluded for 20 min using a snare technique (FIG. 16). Successful occlusion of the artery was confirmed by ST elevation in lead II ECG within the first 5 minutes of ligation, and by frequent ventricular arrhythmia after 10 minutes of ligation. The snare was released to restore blood flow. The original suture loop was left in place for subsequent re-occlusion on Day 7. After initiation of reperfusion, the chest cavity was closed with 2 layers of suture. Rats were weaned from the ventilator and observed until fully conscious and mobile. Antibiotic (QD) and analgesic (Q8D) were provided. Additional serum samples were collected 6, 24, 72 and 120 hours post occlusion. Additional compound, positive control or vehicle treatments were delivered by intravenous injection in the tail vein at 24, 72 and 120 hours post occlusion.
# On Day 7, each rat was anesthetized (ketamine:xyline), the chest cavity re-opened and a terminal blood sample (1 ml) was withdrawn from the abdominal vein. Gross pathology (i.e. inflammation) was noted and graded on a 4 point inflammation scale: 0=no inflammation, 1=slight, 2=moderate, 3=severe and 4=complete pericarditis. The left coronary artery was then re-occluded using the existing stitch and a concentrated solution of Evans Blue dye in saline (20 mg/ml; 0.5 ml/rat) was injected into the heart apex to stain the non-ischemic cardiac tissue blue. The heart was then arrested by injection of a saturated solution of potassium chloride into the right ventricle. The heart was then excised, wrapped in cellophane and stored at −20° C. for 1.5 hour. The cold heart was cut into 10 cross-sectional slices (2 mm/slice) and each section was numbered and incubated separately in triphenyltetrazolium chloride (1% TTC in PBS) for 10 minutes at 37° C. prior to fixing in 4% formaldehyde. Subsequently, each slice was photographed. For each slice, the “area at risk (AR)” and the “area occupied by necrosis (AN)” were measured by morphometry. The ratio of AN to AR is a measure of the degree of damage resulting from the occlusion (FIG. 17A-FIG. 17B).
# [2] = test system: rat osteosarcoma (17/2.8) cells; experiment: Rat osteosarcoma (ROS) cell-based alkaline phosphatase assay; settings: 0.02-200 uM, 2 days; relative to BMP-7 standard
# Procedure: BMP interactions with Type I and Type II receptors can induce alkaline phosphatase activity, a marker for osteoblast activity, in ROS cells. An assay procedure as described earlier (Maliakal, J.C., Asahina, I., Hauschka, P. V., and Sampath, T. K. (1994) Growth factors 11, 227-234) was used to determine the biological activities of TDFRP compounds. In a typical experiment, rat osteosarcoma (17/2.8) cells are plated in 96 well plates (3.0×10^4 cells/well) and incubated overnight at 37 C in 5-6% CO2 incubator. The next day, healthy and confluent cells are treated with increasing concentrations of BMP-7 standard (1-10,000 ng/ml) served as positive control or TDFRP compounds (0.02-200 uM) prepared in medium containing 1% FBS and incubated for 2 days at 37 C in 5-6% CO2 incubator. The cellular content of alkaline phosphatase activity is determined by the method of Reddi and Huggins (Reddi, A. H., and Huggins, C. B (1972) Proc. Natl. Acad. Sci. USA 69, 1601-1605). Enzyme estimations are performed in 96 well plates. Following removal of culture medium, cells are washed with pre-warmed PBS (150 ul) and incubated in 100 ul of pre-warmed 1% Triton X-100 for 30 minutes at 37 C. Plates are centrifuged for 10 minutes at full speed, and recovered samples (15 ul) are assayed for enzyme activity by adding 90 ul p-nitrophenyl phosphate (Sigma) as a substrate in 0.05 M glycine-NaOH buffer, pH 9.3 and incubating for 20 minutes at 37 C. The reaction is stopped by adding 75 ul of 0.2 N NaOH/well and absorbance at 405/490 nm is measured on a Dynatech MR 700 plate reader. Results are expressed as relative activities compared to a BMP-7 standard.
sequence,measurement,setting,value
CYFDDSSNVLCKKYRS [SEQ ID NO 45],cisplatin-induced apoptosis,HK-2 cells,inhibits cisplatin-induced apoptosis
same,degree of cardiac inflammation,[1]; LAD occlusion model,reduces the degree of cardiac inflammation
same,necrotic area to area at risk ratio (IA/AR),[1]; LAD occlusion model,reduces the necrotic area to area at risk ratio (IA/AR)
same,reduction in inflammation score as compared to PBS-treated animals,"[1]; day 7, 10 mg/kg i.v., 4 point inflammation scale",78%
same,reduction in AN/AR ratio as compared to PBS-treated animals,"[1]; day 7, compound 10 mg/kg i.v., rhmBMP-7 160 μg/kg i.v.",84%
same,inflammation and cytotoxic effects toward cardiomyocytes following myocardial infarction,[1]; myocardial ischemia and reperfusion injury,ameliorate inflammation and cytotoxic effects toward cardiomyocytes
same,induction of alkaline phosphatase activity,[2],did not induce alkaline phosphatase activity
